Tested on: Rattus norvegicus
Details: short-term, duration: 28 days, oral, gavage, Sprague-Dawley

Q: What does the source list for `O=S(=O)([O-])C(F)(F)C(F)(F)C(F)(F)C(F)(F)C(F)(F)C(F)(F)F.[K+]` [Potassium perfluorohexanesulfonate]?
A: NOEL (F, Clinical chemistry_Alanine aminotransferase): 50 mg/kg-day; NOEL (F, Clinical chemistry_Albumin): 50 mg/kg-day; NOEL (F, Clinical chemistry_Albumin/globulin ratio): 50 mg/kg-day; NOEL (F, Clinical chemistry_Alkaline phosphatase): 50 mg/kg-day; NOEL (F, Clinical chemistry_Aspartate aminotransferase): 50 mg/kg-day; NOEL (F, Clinical chemistry_Cholesterol): 50 mg/kg-day; NOEL (F, Clinical chemistry_Direct bilirubin): 50 mg/kg-day; LOEL (F, Clinical chemistry_Free thyroxine): 12.5 mg/kg-day; NOEL (F, Clinical chemistry_Globulin): 50 mg/kg-day; NOEL (F, Clinical chemistry_Sorbitol dehydrogenase): 50 mg/kg-day; NOEL (F, Clinical chemistry_Testosterone): 50 mg/kg-day; NOEL (F, Clinical chemistry_Thyroid stimulating hormone): 50 mg/kg-day; NOEL (F, Clinical chemistry_Total bile acids): 50 mg/kg-day; NOEL (F, Clinical chemistry_Total bilirubin): 50 mg/kg-day; NOEL (F, Clinical chemistry_Total protein): 50 mg/kg-day; LOEL (F, Clinical chemistry_Total thyroxine): 6.25 mg/kg-day; NOEL (F, Clinical chemistry_Total triiodothyronine): 50 mg/kg-day; NOEL (F, Clinical chemistry_Triglycerides): 50 mg/kg-day; NOEL (F, Gene expression_Acox1): 50 mg/kg-day; LOEL (F, Gene expression_Cyp2b1): 3.12 mg/kg-day; LOEL (F, Gene expression_Cyp2b2): 3.12 mg/kg-day; NOEL (F, Gene expression_Cyp4a1): 50 mg/kg-day; NOEL (F, Hematology_Erythrocytes): 50 mg/kg-day; NOEL (F, Hematology_Hematocrit): 50 mg/kg-day; NOEL (F, Hematology_Hemoglobin): 50 mg/kg-day; NOEL (F, Hematology_Leukocytes): 50 mg/kg-day; NOEL (F, Hematology_Reticulocytes): 50 mg/kg-day; NOEL (F, Hematology_S. neutrophils): 50 mg/kg-day; NOEL (F, Nonneoplastic effects_Bone marrow - Hypocellularity): 50 mg/kg-day; NOEL (F, Nonneoplastic effects_Kidney - Papilla, necrosis): 50 mg/kg-day; NOEL (F, Nonneoplastic effects_Liver - Hepatocyte, cytoplasmic alteration): 50 mg/kg-day; NOEL (F, Nonneoplastic effects_Liver - Hepatocyte, hypertrophy): 50 mg/kg-day; NOEL (F, Nonneoplastic effects_Liver - Hepatocyte, vacuolization cytoplasmic): 50 mg/kg-day; NOEL (F, Nonneoplastic effects_Liver - Necrosis): 50 mg/kg-day; LOEL (F, Nonneoplastic effects_Nose - Olfactory epithelium, degeneration): 50 mg/kg-day; LOEL (F, Nonneoplastic effects_Nose - Olfactory epithelium, hyperplasia): 50 mg/kg-day; NOEL (F, Nonneoplastic effects_Nose - Olfactory epithelium, necrosis): 50 mg/kg-day; NOEL (F, Nonneoplastic effects_Spleen - Extramedullary hematopoiesis, decreased): 50 mg/kg-day; NOEL (F, Nonneoplastic effects_Stomach, forestomach - Epithelium, hyperplasia): 50 mg/kg-day; NOEL (F, Nonneoplastic effects_Thymus - Atrophy): 50 mg/kg-day; NOEL (F, Organ weights_Heart - Absolute): 50 mg/kg-day; NOEL (F, Organ weights_Heart - Relative): 50 mg/kg-day; LOEL (F, Organ weights_Liver - Absolute): 3.12 mg/kg-day; LOEL (F, Organ weights_Liver - Relative): 3.12 mg/kg-day; NOEL (F, Organ weights_Lung - Absolute): 50 mg/kg-day; NOEL (F, Organ weights_Lung - Relative): 50 mg/kg-day; LOEL (F, Organ weights_R. adrenal gland - Absolute): 12.5 mg/kg-day; LOEL (F, Organ weights_R. adrenal gland - Relative): 50 mg/kg-day; NOEL (F, Organ weights_R. kidney - Absolute): 50 mg/kg-day; NOEL (F, Organ weights_R. kidney - Relative): 50 mg/kg-day; NOEL (F, Organ weights_Spleen - Absolute): 50 mg/kg-day; NOEL (F, Organ weights_Spleen - Relative): 50 mg/kg-day; NOEL (F, Organ weights_Thymus - Absolute): 50 mg/kg-day; NOEL (F, Organ weights_Thymus - Relative): 50 mg/kg-day; NOEL (F, Reproductive toxicity_Altered estrous cyclicity): 50 mg/kg-day; NOEL (F, Survival rates): 50 mg/kg-day; NOEL (F, body weight): 50 mg/kg-day; NOEL (M, Clinical chemistry_Alanine aminotransferase): 10 mg/kg-day; NOEL (M, Clinical chemistry_Albumin): 10 mg/kg-day; LOEL (M, Clinical chemistry_Albumin/globulin ratio): 10 mg/kg-day; NOEL (M, Clinical chemistry_Alkaline phosphatase): 10 mg/kg-day; NOEL (M, Clinical chemistry_Aspartate aminotransferase): 10 mg/kg-day; LOEL (M, Clinical chemistry_Cholesterol): 1.25 mg/kg-day; NOEL (M, Clinical chemistry_Direct bilirubin): 10 mg/kg-day; LOEL (M, Clinical chemistry_Free thyroxine): 0.625 mg/kg-day; LOEL (M, Clinical chemistry_Globulin): 10 mg/kg-day; NOEL (M, Clinical chemistry_Sorbitol dehydrogenase): 10 mg/kg-day; NOEL (M, Clinical chemistry_Testosterone): 10 mg/kg-day; NOEL (M, Clinical chemistry_Thyroid stimulating hormone): 10 mg/kg-day; NOEL (M, Clinical chemistry_Total bile acids): 10 mg/kg-day; NOEL (M, Clinical chemistry_Total bilirubin): 10 mg/kg-day; NOEL (M, Clinical chemistry_Total protein): 10 mg/kg-day; LOEL (M, Clinical chemistry_Total thyroxine): 0.625 mg/kg-day; LOEL (M, Clinical chemistry_Total triiodothyronine): 0.625 mg/kg-day; LOEL (M, Clinical chemistry_Triglycerides): 2.5 mg/kg-day; LOEL (M, Gene expression_Acox1): 5 mg/kg-day; LOEL (M, Gene expression_Acyl-CoA oxidase): 5 mg/kg-day; LOEL (M, Gene expression_Cyp2b1): 1.25 mg/kg-day; LOEL (M, Gene expression_Cyp2b2): 0.625 mg/kg-day; LOEL (M, Gene expression_Cyp4a1): 1.25 mg/kg-day; NOEL (M, Hematology_Erythrocytes): 10 mg/kg-day; NOEL (M, Hematology_Hematocrit): 10 mg/kg-day; NOEL (M, Hematology_Hemoglobin): 10 mg/kg-day; NOEL (M, Hematology_Leukocytes): 10 mg/kg-day; LOEL (M, Hematology_Reticulocytes): 1.25 mg/kg-day; NOEL (M, Hematology_S. neutrophils): 10 mg/kg-day; NOEL (M, Nonneoplastic effects_Bone marrow - Hypocellularity): 10 mg/kg-day; NOEL (M, Nonneoplastic effects_Kidney - Papilla, necrosis): 10 mg/kg-day; NOEL (M, Nonneoplastic effects_Liver - Hepatocyte, cytoplasmic alteration): 10 mg/kg-day; LOEL (M, Nonneoplastic effects_Liver - Hepatocyte, hypertrophy): 2.5 mg/kg-day; NOEL (M, Nonneoplastic effects_Liver - Hepatocyte, vacuolization cytoplasmic): 10 mg/kg-day; NOEL (M, Nonneoplastic effects_Liver - Necrosis): 10 mg/kg-day; NOEL (M, Nonneoplastic effects_Nose - Olfactory epithelium, degeneration): 10 mg/kg-day; NOEL (M, Nonneoplastic effects_Nose - Olfactory epithelium, hyperplasia): 10 mg/kg-day; NOEL (M, Nonneoplastic effects_Nose - Olfactory epithelium, inflammation, suppurative): 10 mg/kg-day; NOEL (M, Nonneoplastic effects_Nose - Olfactory epithelium, necrosis): 10 mg/kg-day; NOEL (M, Nonneoplastic effects_Spleen - Extramedullary hematopoiesis, decreased): 10 mg/kg-day; NOEL (M, Nonneoplastic effects_Stomach, forestomach - Epithelium, hyperplasia): 10 mg/kg-day; NOEL (M, Nonneoplastic effects_Thymus - Atrophy): 10 mg/kg-day; NOEL (M, Organ weights_Heart - Absolute): 10 mg/kg-day; NOEL (M, Organ weights_Heart - Relative): 10 mg/kg-day; LOEL (M, Organ weights_Liver - Absolute): 1.25 mg/kg-day; LOEL (M, Organ weights_Liver - Relative): 1.25 mg/kg-day; NOEL (M, Organ weights_Lung - Absolute): 10 mg/kg-day; NOEL (M, Organ weights_Lung - Relative): 10 mg/kg-day; LOEL (M, Organ weights_R. adrenal gland - Absolute): 5 mg/kg-day; LOEL (M, Organ weights_R. adrenal gland - Relative): 2.5 mg/kg-day; NOEL (M, Organ weights_R. kidney - Absolute): 10 mg/kg-day; LOEL (M, Organ weights_R. kidney - Relative): 10 mg/kg-day; NOEL (M, Organ weights_Spleen - Absolute): 10 mg/kg-day; NOEL (M, Organ weights_Spleen - Relative): 10 mg/kg-day; NOEL (M, Organ weights_Thymus - Absolute): 10 mg/kg-day; NOEL (M, Organ weights_Thymus - Relative): 10 mg/kg-day; NOEL (M, Reproductive toxicity_Altered sperm parameters): 10 mg/kg-day; NOEL (M, Survival rates): 10 mg/kg-day; NOEL (M, body weight): 10 mg/kg-day
